Legend:
feeding behavior [1] = assay: Reversal of C-75 feeding inhibition by intracerebroventricular NPY; assay type: in vivo, mice; settings: 500 ng NPY ICV
Description: To confirm this finding, the capacity of NPY to reverse C-75-induced inhibition of feeding was examined. Mice were pretreated with 30_mg/kg of C-75 by I.P. injection. After 4 hours, mice were anaesthetized by inhaled metofane and given a direct intracerebroventricular injection of 500_ng NPY (2.5 μl total volume) or artificial CSF vehicle. Mice were placed into metabolic cages and observed for feeding behavior and monitored for food intake over 18 hours.

feeding behavior [2] = assay: ICV TOFA pretreatment and feeding inhibition by IP C-75; assay type: in vivo, BALB/c mice; settings: 2 μg TOFA ICV, 2 hours later 15 mg/kg C-75 IP, food intake over 2 hours
Description: This model predicts that feeding inhibition by FAS inhibitors should be attenuated by inhibitors of ACC's. To test this, mice were pretreated with the ACC inhibitor TOFA or vehicle by ICV injection and examined the ability of C-75, administered IP, to inhibit feeding. BALB/c mice were anesthetized with metofane and injected ICV with 2 μg of TOFA or DMSO vehicle. After 2 hours recovery, mice were injected IP with 15 mg C-75/kg or RPMI vehicle and monitored for total food intake over 2 hours. […] In addition, mice were anesthetized and injected ICV with 2 μl of RPMI or C-75 at 2.5 or 5 μg/μl and food intake monitored over 2 (shaded) and 4 (solid) hours. The efficacy of centrally administered TOFA argues for a central (CNS) mechanism of action. ICV administration of C-75 inhibited feeding by 82% (FIG. 5C), supporting the central target action of C-75. FIGS. 5(B) and (C) combine results from 3 experiments with N=3 for each (9 total).

[3] = test system: acetyl CoA carboxylase (ACC); settings: previous studies; cited from earlier work

Compound	feeding behavior after ICV injection (feeding behavior [1]; mice pretreated with vehicle or C-75)	total food intake in C-75-treated mice (feeding behavior [1]; monitored over 18 hours)	food intake in C-75-treated mice after TOFA pretreatment (feeding behavior [2])	effect on fatty acid synthesis [3]	effect on feeding [3]
NPY: neuropeptide Y, anabolic neuropeptide produced in the hypothalamus that strongly stimulates feeding; injected ICV	rapidly led to voracious feeding	substantially elevate the total food intake			
CCCCCCCCCCCCCCOc1ccc(C(=O)O)o1 [TOFA]			largely restored food intake	inhibition of fatty acid synthesis	did not inhibit feeding

Reference: patent US20100022639A1, “Methods of Inducing Weight Loss” (The Johns Hopkins University School of Medicine Licensing …, priority 2000, published 2010)
